Data published in ChEMBL document CHEMBL2074565, “Molecular mechanisms of organic cation transport in OCT2-expressing Xenopus oocytes” (Biochim Biophys Acta, 1999).

T1: Solute carrier family 22 member 2 (Rattus norvegicus, UniProt Q9R0W2)
T1 sequence (Q9R0W2 whole entry): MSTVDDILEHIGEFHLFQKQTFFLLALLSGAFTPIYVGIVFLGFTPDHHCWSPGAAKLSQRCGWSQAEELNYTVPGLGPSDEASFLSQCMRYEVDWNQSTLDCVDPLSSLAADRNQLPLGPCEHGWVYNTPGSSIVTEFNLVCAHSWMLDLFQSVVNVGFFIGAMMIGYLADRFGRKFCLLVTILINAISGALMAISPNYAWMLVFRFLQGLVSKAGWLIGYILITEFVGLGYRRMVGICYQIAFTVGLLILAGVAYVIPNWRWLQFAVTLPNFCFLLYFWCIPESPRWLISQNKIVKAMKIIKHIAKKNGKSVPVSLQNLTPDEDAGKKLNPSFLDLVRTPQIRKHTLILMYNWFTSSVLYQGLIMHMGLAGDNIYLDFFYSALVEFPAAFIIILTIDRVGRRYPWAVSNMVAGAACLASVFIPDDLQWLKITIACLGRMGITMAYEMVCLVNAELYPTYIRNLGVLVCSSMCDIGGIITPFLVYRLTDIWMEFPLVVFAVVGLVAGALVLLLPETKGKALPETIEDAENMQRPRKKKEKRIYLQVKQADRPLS

T2: Solute carrier family 22 member 1 (Rattus norvegicus, UniProt Q63089)
T2 sequence (Q63089 whole entry): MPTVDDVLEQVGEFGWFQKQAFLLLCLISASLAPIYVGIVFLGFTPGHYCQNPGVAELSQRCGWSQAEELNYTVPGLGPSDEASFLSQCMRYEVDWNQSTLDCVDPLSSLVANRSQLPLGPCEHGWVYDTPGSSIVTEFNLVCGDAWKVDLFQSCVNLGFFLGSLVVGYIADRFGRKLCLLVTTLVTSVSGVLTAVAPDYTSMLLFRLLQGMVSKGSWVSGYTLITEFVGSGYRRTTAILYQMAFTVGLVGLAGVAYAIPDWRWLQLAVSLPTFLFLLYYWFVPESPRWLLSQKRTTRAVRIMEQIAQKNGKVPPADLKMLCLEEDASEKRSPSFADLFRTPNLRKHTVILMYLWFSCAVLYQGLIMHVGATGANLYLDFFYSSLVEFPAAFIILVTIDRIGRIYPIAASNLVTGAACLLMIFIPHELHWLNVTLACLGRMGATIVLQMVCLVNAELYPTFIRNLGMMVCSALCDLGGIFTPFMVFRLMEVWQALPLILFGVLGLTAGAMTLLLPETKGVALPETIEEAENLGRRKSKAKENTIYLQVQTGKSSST

B1: Solute carrier family 22 member 2 (Rattus norvegicus) (protein)
chain: T1 sequence (Q9R0W2 whole entry)

Legend:
[1] = molecular target: T1, Solute carrier family 22 member 2; assay: TP_TRANSPORTER: inhibition of TEA uptake (TEA: 100 uM) in Xenopus laevis oocytes; format: functional, cell-based, Oocyte
[2] = molecular target: T2, Solute carrier family 22 member 1
[3] = molecular target: T1, Solute carrier family 22 member 2; assay: TP_TRANSPORTER: inhibition of TEA uptake (TEA: 250 uM, Levofloxacin: 5000 uM) in Xenopus laevis oocytes; format: functional, cell-based; settings: oocyte
[4] = substrate: CC[N+](CC)(CC)CC; assay: cells, lysate or membranes named

Row | Molecule | IC50 [1] | IC50 [2] | Activity [3] | Km [4]
1 | CCN1/C(=C/c2ccc3ccccc3[n+]2CC)C=Cc2ccccc21 | 13.8 µM | – | – | –
2 | C[N+](C)(C)CCO [CHOLINE] | 159 µM | 398 µM | – | –
3 | CN/C(=N/CCSCc1nc[nH]c1C)NC#N [CIMETIDINE] | 373 µM | 329 µM | – | –
4 | C[C@H]1COc2c(N3CCN(C)CC3)c(F)cc3c(=O)c(C(=O)O)cn1c23.C[C@H]1COc2c(N3CCN(C)CC3)c(F)cc3c(=O)c(C(=O)O)cn1c23.O [LEVOFLOXACIN] | – | – | inhibitor [+] | –
5 | B1 | – | – | – | 33.8 µM
